Data taken from article PMC12173412 (PLOS Neglected Tropical Diseases, 2025).

Key:
[1] = target: Niemann-Pick type C2 (NPC2); assay type: binding, Haemaphysalis longicornis
[2] = target: Odor Binding Protein-like (OBPL); design: species or system Haemaphysalis longicornis
[3] = target: Niemann-Pick type C2 (NPC2); assay type: binding, Haemaphysalis longicornis; remark: listed apart in the source
[4] = target: Odor Binding Protein-like (OBPL); design: species or system Haemaphysalis longicornis; remark: listed apart in the source

SMILES | Kd [1] | Kd [2] | Ki [3] | Ki [4]
c1ccc(Nc2cccc3ccccc23)cc1 [1-NPN] | 3.18 µM | 2.56 µM |  | 
c1ccc2[nH]ccc2c1 [indole] |  |  | 10.3 µM | 2.26 µM
Cc1c[nH]c2ccccc12 [3-methylindole] |  |  | 15.4 µM | 4.19 µM
